The subject of assay [1] is CCRF-CEM. Nature of the assay: Minimum compound concentration that reduced cell viability by 25% for HIV replication in CEM cells. It counts as functional, Homo sapiens.
In assay [2] the test system is MT2. Nature of the assay: Minimum compound concentration that reduced cell viability by 25% for HIV replication in MT-2 cells. It counts as functional, Homo sapiens.
Assay [3] in a line: Selectivity index is calculated by dividing the TC25(MT2) by ID50(MT2). It counts as functional.
Assay [4] concerns MT2. Nature of the assay: Compound was tested for its inhibitory activity against HIV replication in MT-2 cells. The format is functional, cell-based. The following applies: Homo sapiens.
Assay [5] deals with MT2. Nature of the assay: Total viral index (TAI) is the area between the cytotoxicity and the antiviral activity curve for MT-2 cell line. The format is functional, Homo sapiens.
Assay [6] relates to CCRF-CEM. Nature of the assay: Compound was tested for its inhibitory activity against HIV replication in CEM cells. It counts as functional, cell-based. Conditions: Homo sapiens.
Assay [7] has as its system CCRF-CEM. Briefly: Total viral index (TAI) is the area between the cytotoxicity and the antiviral activity curve for CEM cells. The format is functional, Homo sapiens.
A short description of assay [8]: Selectivity index is calculated by dividing the TC25(CEM) by ID50(CEM). It counts as functional.
Assay [9] has as its system CCRF-CEM. Briefly: Minimum compound concentration that reduced cell viability by 25% for HIV replication in CEM cells.
The subject of assay [10] is CCRF-CEM. Briefly: Compound was tested for its inhibitory activity against HIV replication in CEM cells. The following applies: Homo sapiens.
Assay [11] relates to CCRF-CEM. Nature of the assay: Total viral index (TAI) is the area between the cytotoxicity and the antiviral activity curve for CEM cells.
The subject of assay [12] is CCRF-CEM. Nature of the assay: Total viral index (TAI) is the area between the cytotoxicity and the antiviral activity curve for CEM cell line. It counts as functional, Homo sapiens.
Assay [13] has as its system MT2. Nature of the assay: Total viral index (TAI) is the area between the cytotoxicity and the antiviral activity curve for MT-2 cells. It counts as functional, Homo sapiens.

Converted amounts (≈) assume the structure as drawn.

What is called IC50 is the concentration that gives 50% inhibition. A lower IC50 goes with greater potency in that assay. Take `Nc1nc(O)c2ncn(C3CC[C@@H](CO)S3)c2n1` (some centres not stated): the TC25 in assay [1] was more than 100 µg/mL; in [2], more than 200 µg/mL. Moreover, the Selectivity index in [3] was 1.6. The molecule also displayed an IC50 in assay [4] of 98 µg/mL (≈ 367 µM). In assay [5], the TAI was determined as 11.

`Nc1ccn([C@H]2CC[C@@H](CO)O2)c(=O)n1` [ZALCITABINE]: the values for the TC25 in assay [1] and in assay [2] were 5.3 µg/mL (≈ 25.1 µM) and more than 9.8 µg/mL, respectively. The IC50 in [6] amounted to 0.05 µg/mL (≈ 0.237 µM); in assay [4] it was 0.44 µg/mL (≈ 2.08 µM). The TAI in assay [7] was more than 63; in assay [5] it was more than 52. For the same molecule, the Selectivity index was more than 25 in [3] and 120 in assay [8].

For `Nc1nc(N)c2ncn(C3CC[C@@H](CO)S3)c2n1` (some centres not stated), the TC25 in [9] was 97 µg/mL (≈ 364 µM). Also, in assay [10], the IC50 came out at 37 µg/mL (≈ 139 µM). In [11], this molecule yielded a TAI of 21. For the same molecule, in [8], the Selectivity index was 2.6.

As for `Nc1ncnc2c1ncn2C1CC[C@@H](CO)S1` (some centres not stated), the TC25 in assay [2] was more than 100 µg/mL. The Selectivity index in [3] was 1.3. The same molecule displayed an IC50 in assay [4] of 80 µg/mL (≈ 318 µM). In addition, the TAI in assay [5] is reported as more than 10.

For the molecule `Cc1cn([C@H]2C[C@H](N=[N+]=[N-])[C@@H](CO)O2)c(=O)[nH]c1=O` [ZIDOVUDINE], the TC25 was more than 10 µg/mL in assay [1] and 9.3 µg/mL (≈ 34.8 µM) in assay [2]. For the same molecule, the 50% inhibitory concentration (IC50) was less than 0.03 µg/mL in [6] and 0.14 µg/mL (≈ 0.524 µM) in [4]. Moreover, the TAI was more than 93 in assay [7] and more than 82 in assay [5]. Further, the results for the Selectivity index in [3] and in [8] were more than 160 and more than 300, respectively.

`Nc1ccn(C2CC[C@@H](CO)S2)c(=O)n1` (some centres not stated): the TC25 in [1] and in [2] was more than 100 µg/mL in each case. For the same molecule, the figures for the IC50 in [6] and in [4] were 1 µg/mL (≈ 4.4 µM) and 38 µg/mL (≈ 167 µM), respectively. Further, the TAI is recorded as more than 65 in assay [12] and more than 23 in assay [13]. Further, the Selectivity index in assay [3] and in [8] was more than 100 throughout.

(Values after ChEMBL document CHEMBL1126188, “Synthesis and anti-HIV activity of 4'-thio-2',3'-dideoxynucleosides” (J Med Chem, 1992).)
